27 compounds from ChEMBL document CHEMBL1201862, “PubChem BioAssay data set” (2004) can be followed below.

Active and inactive are the calls of the source.

In experiment [1] the target is T1, Ubiquitin-conjugating enzyme E2 N (Homo sapiens, UniProt P61088).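 Further: Dose-response confirmation in a TR-FRET assay detecting UBC13-driven polyubiquitin chain formation, inhibition measured.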
T1 sequence (P61088 whole entry): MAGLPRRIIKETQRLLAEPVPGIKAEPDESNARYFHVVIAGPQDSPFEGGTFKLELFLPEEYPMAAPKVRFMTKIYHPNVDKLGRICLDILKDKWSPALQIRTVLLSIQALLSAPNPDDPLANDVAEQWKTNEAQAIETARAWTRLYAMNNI
The experiment is classed as functional.

A further experiment in a line: cells. The experiment is classed as functional.
Experiment [2] addresses T2, RNA-binding protein pos-1 (Caenorhabditis elegans, UniProt G5EF15).
T2 sequence (G5EF15 whole entry): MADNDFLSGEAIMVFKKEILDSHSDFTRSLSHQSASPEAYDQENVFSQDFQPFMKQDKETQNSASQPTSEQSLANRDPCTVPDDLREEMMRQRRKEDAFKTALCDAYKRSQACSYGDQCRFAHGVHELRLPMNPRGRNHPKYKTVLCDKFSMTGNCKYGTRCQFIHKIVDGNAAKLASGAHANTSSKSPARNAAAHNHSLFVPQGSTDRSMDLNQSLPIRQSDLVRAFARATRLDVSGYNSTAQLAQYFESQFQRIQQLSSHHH
The experiment in a line: disruptors of C. elegans POS-1 RNA interaction – biochemical, fluorescence polarization, dose response (AID 1964).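 Further: purified POS-1 fused to maltose binding protein made in E. coli; potency of compounds blocking POS-1 binding to fluorescent RNA.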

Experiment [3] deals with T3, Zinc finger protein mex-5 (Caenorhabditis elegans, UniProt Q9XUB2).
T3 sequence (Q9XUB2 whole entry): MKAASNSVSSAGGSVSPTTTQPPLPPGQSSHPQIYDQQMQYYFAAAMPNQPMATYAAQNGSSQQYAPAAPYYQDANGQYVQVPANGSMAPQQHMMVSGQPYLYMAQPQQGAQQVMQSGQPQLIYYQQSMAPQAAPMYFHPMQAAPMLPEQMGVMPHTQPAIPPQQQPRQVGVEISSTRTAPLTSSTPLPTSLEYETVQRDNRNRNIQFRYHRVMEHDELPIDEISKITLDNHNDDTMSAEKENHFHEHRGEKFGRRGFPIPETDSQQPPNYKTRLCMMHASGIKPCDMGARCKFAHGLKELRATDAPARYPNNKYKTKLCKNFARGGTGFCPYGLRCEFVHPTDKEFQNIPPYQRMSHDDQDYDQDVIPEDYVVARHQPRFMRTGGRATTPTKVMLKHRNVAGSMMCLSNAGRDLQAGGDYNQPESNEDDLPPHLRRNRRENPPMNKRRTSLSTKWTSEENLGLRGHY
The experiment in a line: potency of MEX-5 RNA-binding blockers – biochemical, C. elegans, fluorescence polarization, dose response (AID 1960). In general terms: Polarisation of emitted light reports the rotation of a fluorescent probe.

The nature of experiment [4]: Luminescence Cell-Based Dose Confirmation HTS to Identify Activators of 5'UTR Stem-Loop Driven Alpha-Synuclein mRNA Translation in H4 Neuroglioblastoma Cells. [Related pubchem assays: 1829 (Project Summary), 1814 (Primary HTS)]. It counts as functional.
Experiment [5] is described as follows: Luminescence Cell-Based Dose Response HTS to Identify Activators of Luciferase Translation or Activity in H4 […] Cells. [Related pubchem assays: 1829 (Project Summary), 1814 (Primary HTS)]. The experiment is classed as functional.
The subject of a further experiment is H4. In words: Luminescence Cell-Based Dose Response HTS to Identify Activators of 5'UTR Stem-Loop Driven Prion Protein mRNA Translation in H4 Neuroglioblastoma Cells. [Related pubchem assays: 1829 (Project Summary), 1814 (Primary HTS)]. The following applies: Homo sapiens. The experiment is classed as functional.
Experiment [6] can be described thus: viability of uninfected HEp-2 cells – cell-based, HTS, cytotoxicity control for RSV inhibitor project, dose response (AID 2410). It counts as functional. Conditions: human respiratory syncytial virus.
Experiment [7] in a line: microbe, parasite or virus in culture. It counts as functional. Conditions: Mycobacterium tuberculosis.
A short description of experiment [8]: Luminescence Cell-Based Dose Retest to Confirm Inhibitors of Cancer Stem Cells. [Related pubchem assays (depositor defined):AID2717, AID2721]. The experiment is classed as functional. The following applies: Homo sapiens.
Experiment [9] addresses T4, Corticotropin-releasing factor receptor 2/Corticotropin-releasing factor-binding protein (Homo sapiens, UniProt P24387+Q13324).
T4 sequence (Q13324 whole entry): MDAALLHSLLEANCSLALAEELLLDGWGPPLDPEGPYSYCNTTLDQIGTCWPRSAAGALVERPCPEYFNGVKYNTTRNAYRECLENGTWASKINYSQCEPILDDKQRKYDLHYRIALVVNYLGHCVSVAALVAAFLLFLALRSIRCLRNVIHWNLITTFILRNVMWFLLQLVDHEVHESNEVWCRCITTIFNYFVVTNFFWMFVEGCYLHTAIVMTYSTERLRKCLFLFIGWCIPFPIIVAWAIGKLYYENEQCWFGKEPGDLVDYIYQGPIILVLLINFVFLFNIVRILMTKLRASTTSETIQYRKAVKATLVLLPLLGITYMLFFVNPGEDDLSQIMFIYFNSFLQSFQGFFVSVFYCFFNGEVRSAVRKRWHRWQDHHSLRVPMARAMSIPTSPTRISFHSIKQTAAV
T4 sequence (P24387 whole entry): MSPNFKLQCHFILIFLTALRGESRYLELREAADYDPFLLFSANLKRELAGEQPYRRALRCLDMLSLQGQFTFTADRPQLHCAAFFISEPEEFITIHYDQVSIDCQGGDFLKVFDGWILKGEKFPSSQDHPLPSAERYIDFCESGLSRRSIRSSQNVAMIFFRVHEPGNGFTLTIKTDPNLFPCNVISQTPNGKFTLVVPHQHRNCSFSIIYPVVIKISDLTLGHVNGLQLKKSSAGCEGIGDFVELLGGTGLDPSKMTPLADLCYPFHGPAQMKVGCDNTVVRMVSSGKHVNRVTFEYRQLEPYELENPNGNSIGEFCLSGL
In words: activators of CRF receptor 2 with binding protein – uHTS hits, confirmation (AID 602473). The experiment is classed as functional. The following applies: read-out: EC50_Mean.

Experiment [10] can be described thus: viability of PTEN-deleted HCT116 cells – cell-based, HCT116 PTEN knockout, dose response (AID 1047).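 Further: HCT116 colon tumor cells with PTEN knocked out; cells exposed to compound for 60 hours before readout; potency for loss of cell viability measured by luminescence.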 It counts as functional.
Experiment [11] can be described thus: viability of HCT116 lacking mutant beta-catenin – cell-based, human colon tumor, dose response (AID 1045).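 Further: HCT116 colon tumor cells with beta catenin knocked out; cells exposed to compound for 60 hours.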 The experiment is classed as functional.
In experiment [12] the target is Luciferin 4-monooxygenase (Photinus pyralis, UniProt P08659). In words: inhibition of purified Photinus pyralis luciferase – biochemical, luminescence, dose response (AID 1891).
Chain of Luciferin 4-monooxygenase (P08659 whole entry): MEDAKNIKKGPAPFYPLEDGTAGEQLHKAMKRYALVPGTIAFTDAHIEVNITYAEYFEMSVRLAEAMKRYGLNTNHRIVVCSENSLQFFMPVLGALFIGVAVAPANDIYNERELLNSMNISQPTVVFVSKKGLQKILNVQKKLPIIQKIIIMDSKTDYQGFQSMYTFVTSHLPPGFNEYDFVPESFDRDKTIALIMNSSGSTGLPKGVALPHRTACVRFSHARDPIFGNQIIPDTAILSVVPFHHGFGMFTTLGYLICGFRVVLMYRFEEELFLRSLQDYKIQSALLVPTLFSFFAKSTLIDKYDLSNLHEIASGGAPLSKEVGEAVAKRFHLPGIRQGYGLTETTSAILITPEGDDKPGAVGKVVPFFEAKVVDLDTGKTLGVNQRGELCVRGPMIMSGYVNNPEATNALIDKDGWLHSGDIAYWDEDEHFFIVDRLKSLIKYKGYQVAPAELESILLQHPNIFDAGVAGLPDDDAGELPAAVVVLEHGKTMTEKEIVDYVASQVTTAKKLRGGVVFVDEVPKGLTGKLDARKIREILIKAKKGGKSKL
A short description of experiment [13]: Luminescence Cell-Based Dose Confirmation HTS to Identify Inhibitors of Platelet Dense Granule Release. [Related pubchem assays: 1663 (Primary HTS), 1678 (Summary of Project)]. The experiment is classed as functional.
The target of experiment [14] is T5, Rac GTPase-activating protein 1 (Homo sapiens, UniProt Q9H0H5).
T5 sequence (Q9H0H5 whole entry): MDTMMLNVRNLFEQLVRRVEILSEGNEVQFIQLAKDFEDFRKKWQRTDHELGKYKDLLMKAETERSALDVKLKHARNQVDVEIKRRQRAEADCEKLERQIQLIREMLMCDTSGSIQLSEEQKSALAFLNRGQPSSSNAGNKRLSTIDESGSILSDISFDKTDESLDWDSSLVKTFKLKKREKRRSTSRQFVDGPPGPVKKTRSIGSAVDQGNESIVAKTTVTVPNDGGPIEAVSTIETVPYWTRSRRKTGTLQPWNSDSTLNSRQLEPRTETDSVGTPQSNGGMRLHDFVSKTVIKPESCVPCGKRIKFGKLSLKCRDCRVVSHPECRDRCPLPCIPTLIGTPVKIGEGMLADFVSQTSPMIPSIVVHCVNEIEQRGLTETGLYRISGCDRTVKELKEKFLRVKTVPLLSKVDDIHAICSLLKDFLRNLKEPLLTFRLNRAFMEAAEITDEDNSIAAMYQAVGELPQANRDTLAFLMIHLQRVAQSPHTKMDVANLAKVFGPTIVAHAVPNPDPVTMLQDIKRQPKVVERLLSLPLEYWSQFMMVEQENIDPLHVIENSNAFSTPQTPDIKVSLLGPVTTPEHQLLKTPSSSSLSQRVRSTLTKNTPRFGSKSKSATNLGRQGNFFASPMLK
In words: blockers of MgcRacGAP-driven Rac1 GTP hydrolysis – biochemical, ADP Hunter fluorescence, primary and confirmatory, confirmation (AID 624330). The experiment is classed as functional.
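Wherever AC50 is given: cells exposed to compound for roughly 70 hours or longer before luminescence read.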

In general, IC50 refers to the concentration that inhibits the measured activity by half. In the case of `CN(C)CCCN(C(=O)c1ccc(S(=O)(=O)N2CCCC2)cc1)c1nc2ccc(Br)cc2s1`, the IC50 in [1] was > 20 µM (inactive).
As to `Cc1cc(NC(=O)COC(=O)COc2ccc(C(=O)c3ccccc3)cc2)no1`, in “cells”, the IC50 is 21.2 µM (active).
With `COCCCNC(=O)CCC(=O)NNc1nc2ccccc2c2nc(C)nn12`, the EC50 in experiment [2] was > 300 µM (not active); in experiment [3], 1.13 µM (active).
Take `COc1ccc(C[C@H]2CN3C(=NC[C@@H]3Cc3ccccc3)N2CCNC(=O)c2ccc(C)c(Br)c2)cc1`: the IC50 in experiment [1] is > 20 µM (inactive).
As to `C=CCC1(CC=C)CCCN1C(=O)C1CCC(=O)N(CCc2ccc(OC)cc2)C1` (stereo not drawn), the EC50 in [4] was 6.13 µM (active); in [5] it was 10.4 µM (active); in the experiment on H4 it was 96 µM (active).
In the same order, the values of `Cc1cccc(-c2nc(C#N)c(N3CCCCC3)o2)c1` are 10 µM (active), 20 µM (active) and 3.9 µM (active).
For `CC1=CC(C)(C)N2C(=O)C3(C(C#N)=C(N)OC4=C3C(=O)CC(C)(C)C4)c3cc(C)cc1c32` (stereo not drawn), the EC50 in [2] and in experiment [3] was > 300 µM (not active) throughout.
Consider `CC1CCCCC1NC(=O)/C=C/c1nc2ccccc2s1` (stereo not drawn), for which the EC50 in experiment [4] is 15.9 µM (active); in experiment [5], 17.2 µM (active); with H4, 16.2 µM (active).
Broadly, the AC50 is the midpoint of the concentration-response curve, whichever way the signal moves. For the compound `Cc1nc(NC(=O)CC(C)C)sc1-c1csc(Nc2ccc(Cl)cc2Cl)n1`, the CC50 in [6] was 22.9 µM (active); in [7], > 40 µM (active). Also, in [8], the AC50 is 1.85 µM (active).
`Cc1c(C(=O)Nc2ccc(S(=O)(=O)N(C)C3CCN(C)CC3)cc2)oc2ccccc12`: the CC50 in experiment [6] was 17.2 µM (active). In addition, in experiment [1], the IC50 is > 20 µM (inactive).
For `O=C1c2ccccc2C(=O)N1CCN1CCc2ccccc21`, the results for the EC50 (in experiment [4]; in experiment [5]; in the experiment with H4) were 13.7 µM (active), 17.9 µM (active) and 30.3 µM (active), respectively.
The like results for `Cc1c([N+](=O)[O-])c(C(=O)Nc2ccc3c(c2)OCCO3)nn1C` were, in that order, 17.1 µM (active), 11 µM (active) and 9.3 µM (active).
In the case of `CO[C@H]1O[C@H](CBr)[C@@H](OC(=O)c2ccccc2)[C@H](O)[C@H]1O`, the EC50 in [2] and in experiment [3] was > 300 µM (not active) each time.
For the compound `COc1cc(C2CC(=O)Nc3[nH]nc(-c4ccccc4)c32)cc(OC)c1OC` (stereo not drawn), the EC50 (in experiment [4]; in [5]; in the experiment on H4) was > 120 µM (not active) throughout.
On to `CC(C)c1ccc(N(C(=O)c2ccco2)C(C(=O)NC2CCCC2)c2ccncc2)cc1` (stereo not drawn), for which the values for the EC50 (in experiment [4]; in experiment [5]; with H4) were 22.1 µM (active), 50.3 µM (active) and > 120 µM (not active), respectively.
Turning to `CC(=O)c1ccc(OCC(=O)Nc2ccc3c(c2)CCC3)cc1`, the IC50 in the experiment “cells” is > 50 µM (active).
Consider `O=C1C2=C(SCCS2)C(=O)N1c1ccccc1`, for which the EC50 in experiment [2] and in experiment [3] was > 300 µM (not active) throughout.
In the case of `N#Cc1ccc(-c2ccc(OCC3CNC(=O)O3)cc2)cc1` (stereo not drawn), the results for the EC50 (in [4]; in experiment [5]; in the experiment on H4) were 0.187 µM (active), 36.9 µM (active) and 11.3 µM (active), respectively.
The like results for `Cc1nn(-c2ccc(Cl)nn2)c(=O)c2ccccc12` were, in that order, 12.5 µM (active), 14.4 µM (active) and 16.4 µM (active).
On to `Cc1[n-][o+]nc1OCCNCCNc1ccc([N+](=O)[O-])c2cccnc12`, for which the EC50 in experiment [2] was 120 µM (active); in experiment [3], 18.6 µM (active).
For `Cc1ccc(NC(=O)c2ccc(NCCN)c([N+](=O)[O-])c2)cc1Cl`, the CC50 in experiment [6] was 24.4 µM (active). Further, the IC50 in [1] was > 20 µM (inactive).
Turning to `CN(C)c1ccc(C=C2SC(=S)N(Cc3ccco3)C2=O)cc1`, in [9], the EC50 is 3.2 µM (active).
For `Cc1cc(N/N=C/c2cccc(Cl)c2)nc(NCc2ccccc2)n1`, the EC50 in [10] is 35.3 µM (active); in experiment [11] it was 39.6 µM (active).
For the compound `COc1ccc(/C=N/NC(=O)CSCc2ccc([N+](=O)[O-])cc2)cc1OC`, in experiment [1], the IC50 was > 20 µM (inactive).
On to `C/C(=N\NC(=O)c1c(Br)c(C)nn1C)c1ccc(NC(=O)C(C)Oc2ccc(Cl)cc2C)cc1` (stereo not drawn), for which the EC50 is 11 µM (active) in [10] and 15.1 µM (active) in experiment [11].
`CC(C)=C(NC(=O)c1ccccc1)C(=O)N/N=C/c1ccc(O)cc1`: the EC50 in experiment [4] is 11.3 µM (active); in [5], 11.8 µM (active); in the experiment with H4, 8.89 µM (active); in experiment [12], > 112 µM (not active); in [13] it was > 112 µM (not active). For the same compound, in experiment [14], the half-maximal inhibitory concentration (IC50) is 102 µM (active).
`Cc1cccc(OCC(=O)NC(C)C(=O)N/N=C/c2c(OCc3ccccc3)ccc3ccccc23)c1` (stereo not drawn): the EC50 in [4] was 9.47 µM (active); in experiment [5], 39.7 µM (active); in the experiment on H4 it was 33.5 µM (active).
